Data reported in US20190248834A1, “ENDOMORPHIN-2, TETRAPEPTIDE DERIVATIVES THEREOF, AND USES THEREOF” (priority 2016, published 2019).
Non-standard residues stand in square brackets, D forms with d. pGlu = O=C1CC[C@@H](C(=O)O)N1

What was measured:
Format in all cases: in vivo, human
[1] = tested on: chronic arthritic pain of left ankle; test: Example 9: analgesic effect on ankle pain, topical
From the text: A subject had chronic arthritic pain of their left ankle. They were previously treated with prescription corticosteroid injections.
The subject topically applied an anhydrous composition containing 0.5% (w/v) N-Ac-Tyr-Pro-Phe-Phe-NH2 (SEQ ID NO: 23) in EP73, formulated as described in Example 2, at bedtime. The next morning, they observed approximately 90% improvement of pain. The subject topically re-applied the same composition at bedtime. The following entire day, they had about 95% pain improvement.

[2] = tested on: psoriatic arthritis of fingers; test: Example 19: analgesic effect on psoriatic arthritis of fingers, topical
Protocol: A subject had extensive plaque psoriasis and painful arthritis of the interphalangeal joints of both index fingers, left thumb and left 5th finger. The pain was compromising their work performance as an esthetician. […] Pain relief lasted for about 6 hours.

hallux valgus (bunion) = test: Example 26: analgesic effect on painful inflammation of hallux valgus, topical
From the text: A subject had hallux valgus of the right 1st metatarsal-proximal phalangeal joint for a duration of 5-6 years. Pain in the joint was episodic and associated with inflammation. […] A second application of the solution was made that evening, even though there was no pain. […] Such improvement lasted over the next 2 weeks.

[3] = tested on: jaw pain after tooth extraction; test: Example 28: analgesic effect on dental extraction pain, topical
Protocol: A subject had substantial pain in the left mandibular jaw that started about 3 hours after extraction of a left mandibular molar tooth. […] Only negligible discomfort was perceptible thereafter.

knee pain = test: Example 32: analgesic effect on knee pain after housework, topical; conditions: 1% (w/v) in WEP442, topical
From the text: A subject with discomforting knee pain in the evening after cleaning their own house for several hours topically applied a composition containing 1% (w/v) of N-Ac-Tyr-Pro-Phe-Phe-NH2 (SEQ ID NO: 23) in WEP442.

bruised finger = test: Example 37: analgesic effect on bruised finger, topical; conditions: 1% (w/v) in WEP442, topical
From the text: A subject, severely bruised their left 5th finger while trying to close a basement window in their house. The pain was intense, and associated with subcutaneous hemorrhage.

severe frontal headaches = test: Example 47: analgesic effect on severe headaches, topical
From the text: A subject had severe frontal headaches occurring every 5-10 days.

psoriatic arthritis = test: Example 73: analgesic effect on psoriatic arthritis of hands, fingers and ankles, topical; conditions: 0.5% (w/v) in WEP442, topical
From the text: A subject had psoriatic arthritis of the hands and finger joints and ankle joints for 4 years.

hangover headache = test: Example 74: analgesic effect on severe hangover headache, topical; conditions: 0.5% (w/v) in WEP442, topical
From the text: They were provided a solution composition containing 0.5% (w/v) of N-Ac-Tyr-Pro-Phe-Phe-NH2 (SEQ ID NO: 23) in WEP442 which they topically applied to the neck, peripheral scalp, and entire face and forehead.

[4] = tested on: osteoarthritis of the fingers and wrists; test: Example 82: pain and flexibility of fingers and wrists affected by osteoarthritis, topical
From the text: A subject had osteoarthritis of the fingers and wrists for about 10 years, with substantial worsening over the past several months. Symptoms included painful finger joints and wrists. The pain was much worsened by flexion, so that making a first was too painful to try. Moreover, complete flexion had not been possible because of actual physical limitations. Anatomical signs of their disorder, e.g., enlarged finger joints, were conspicuous in their case. […] Additionally, complete flexion of the fingers and making of a tight first could be done without any discomfort.

[5] = tested on: osteoarthritis of the knees; test: Example 94: osteoarthritic knees, intra-articular injection of N-Ac derivative; conditions: approximately 1% (w/v) in water, 1 ml per knee intra-articular
Protocol: A subject with osteoarthritis of the knees that progressively worsened over the years, evaluated the analgesic effectiveness of many topical preparations of tetrapeptide derivatives of the invention on numerous occasion. After such experiences, they decided to self-inject […] knees with a sterile aqueous preparation of N-Ac-Tyr-Pro-Phe-Phe-NH2, (SEQ ID NO: 23) at a concentration of approximately 1% (w/v) in water. Via the sub-patellar route, each knee was injected with 1 ml of the preparation, containing approximately 10 mg of the tetrapeptide . […] Walking about with the use of a wheeled walker at that time, the subject experienced knee pain, but at a level distinctly lower than earlier days before the injection. This degree of substantially diminished knee pain continued for an additional 16 hours when the return of pain was detected (3+ effect).

headache = test: Example 52: analgesic effect on headache; conditions: 1% (w/v) in WEP442, topical
From the text: At 5:30 p.m., the headache pain was becoming more intense, at which time they topically applied a composition containing 1% (w/v) of N-Pg-Tyr-Pro-Phe-Phe-NH2 (SEQ ID NO: 44) in WEP442 to the entire forehead and temporal areas. […] There was no recurrence of symptoms over the next 3 days of follow-up time.

discomfort of hands = test: Example 63: analgesic effect on wrist and hand pain, topical; conditions: 0.5% (w/v) in WEP442, topical
From the text: A person hairdresser, after several hours of styling hair, experienced substantial discomfort on their hands that interfered with further pursuit of their work.

[6] = tested on: painful arthritis of hands; test: Example 76: analgesic effect on arthritis pain of the hands, topical; conditions: 0.5% (w/v) in WEP442, topical; before about 20 minutes
Protocol: A subject, and a veteran guitar player, was able to play their instrument in previous years for about an hour in group session performances. […] The subject reported that topical application to their hands of a composition containing 0.5% (w/v) of N-Pg-Tyr-Pro-Phe-Phe-NH2 (SEQ ID NO: 44) in WEP442 enabled them to play their guitar for 1 hour pain free. They also noted that the quality of their performance had improved.

**Q.** What does the source list for `CC(=O)N[C@@H](Cc1ccc(O)cc1)C(=O)N1CCC[C@H]1C(=O)N[C@@H](Cc1ccccc1)C(=O)N[C@@H](Cc1ccccc1)C(N)=O` [N-Ac-Tyr-Pro-Phe-Phe-NH2]?
**A.** pain improvement ([1]; 0.5% (w/v) in EP73, re-applied at bedtime, following entire day): about 95%; improvement of pain ([1]; 0.5% (w/v) in EP73, topical at bedtime, next morning): approximately 90%; duration of pain relief ([2]; 1% (w/v) in WEP442, topical): about 6 hours; time to pain relief ([2]; 1% (w/v) in WEP442, topical): ≤ 30 s; pain relief ([2]; 1% (w/v) in WEP442, topical each day for one month): all arthritic pain of the finger was gone; erythema, swelling and pain (hallux valgus (bunion); 1% (w/v) in WEP442, morning after second application): the erythema was gone, the swelling had subsided, and there was no pain; duration of improvement (hallux valgus (bunion); 1% (w/v) in WEP442, topical): 2 weeks; pain relief (hallux valgus (bunion); 1% (w/v) in WEP442, topical): all pain was gone; time to pain relief (hallux valgus (bunion); 1% (w/v) in WEP442, topical): ≤ 15 min; time to pain relief ([3]; 1% (w/v) in WEP442, topical): less than 1 minute; pain relief ([3]; 1% (w/v) in WEP442, topical to facial-lower jaw skin): complete relief of pain; duration of pain relief (knee pain): 5 to 7 h; pain relief (knee pain): Total relief of pain; time to pain relief (knee pain): ≤ 1 min; pain relief (bruised finger): complete relief of pain; time to pain relief (bruised finger): ≤ 15 s; time to pain relief (severe frontal headaches; 1% (w/v) in WEP442, topical): 3 to 4 min; pain relief (severe frontal headaches; 1% (w/v) in WEP442, topical at onset): completely interrupted all pain; duration of pain relief (psoriatic arthritis): approximately 6 hours; pain relief (psoriatic arthritis): almost complete relief of pain; headache relief (hangover headache): almost immediate, complete, relief of their aching head; pain relief ([4]; 0.8% (w/v) in WEP442, after 1 week, one application every 12 hours): complete relief of pain was continually sustained; pain relief ([4]; 0.8% (w/v) in WEP442, one topical application, within 20 minutes): a degree of improvement of pain; pain relief ([4]; 0.8% (w/v) in WEP442, second application, within another 20 minutes): almost complete relief; analgesic effect grade [5]: 3+ (3+ (75%): complete relief of pain for less than 4 hours); discomfort from the injection [5]: Mild discomfort from the injection; additional duration of substantially diminished knee pain ([5]; after the first 24 hours): 16 h; knee pain ([5]; over the ensuing 24 hours): the knee pain gradually diminished

**Q.** For “N-Pg-Tyr-Pro-Phe-Phe-NH2 ([pGlu]YPFF-NH2; SMILES NC(=O)[C@H](Cc1ccccc1)NC(=O)[C@H](Cc1ccccc1)NC(=O)[C@@H]1CCCN1C(=O)[C@H](Cc1ccc(O)cc1)NC(=O)[C@@H]1CCC(=O)N1)”, which pain relief (headache) is on record?
**A.** The pain relief was “all pain, and heavy feelings were completely gone”.

**Q.** What about the “time to pain relief” value (headache) of the same compound?
**A.** The value was at most 30 s.

**Q.** And the “time without recurrence of symptoms (follow-up)” value (headache)?
**A.** The value was at least 3 days.

**Q.** And the relief of discomfort (discomfort of hands)?
**A.** Its relief of discomfort is “complete relief”.

**Q.** And the “pain free guitar playing time” value [6]?
**A.** The value was 1 h.
